Four compounds from ChEMBL document CHEMBL1201862, “PubChem BioAssay data set” (2004) can be followed below.

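Test compounds were applied to cells in 96-well plates for 48 hours at 5 doses. GI50 marks 50% less growth.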 Calls of active or inactive are those of the source. Rule as the data show it: active = GI50 up to about 1.1 µM and inactive = higher.

Among the test systems are DU-145; OVCAR-4; K562; NCI-H23; NCI-H226; MOLT-4; SW-620; HL-60; COLO 205; SN12C; HCT-116; PC-3; SF-268; MDA-MB-231; LOX IMVI; T47D; U-251; ACHN; HOP-92; RXF 393.
What all share (assay): growth of human tumour cells (NCI), 48 h

For the compound `CC1CC(C)CC(NC2=NCCO2)C1` (stereo not given), the GI50 in the assay on DU-145, with OVCAR-4, in the assay on K562, with NCI-H23, in the assay on NCI-H226 and in the assay with MOLT-4 was > 100 µM (inactive) in each case. Moreover, the GI50 with SW-620, with HL-60, in the assay with COLO 205, in the assay with SN12C, with HCT-116 and with PC-3 was > 100 µM (inactive) throughout. Also, the GI50 with SF-268, with MDA-MB-231, with LOX IMVI, in the assay on T47D, in the assay on U-251 and with ACHN was > 100 µM (inactive) throughout. Also, the GI50 in the assay with HOP-92 and in the assay with RXF 393 was > 100 µM (inactive) in each case.
As for `COC(=O)[C@@H]1CN(C(C)=O)C(=O)N1C(=O)OCc1ccccc1`, the GI50 in the assay on DU-145, in the assay on OVCAR-4, in the assay on K562, in the assay with NCI-H23, in the assay on NCI-H226 and in the assay with MOLT-4 was > 100 µM (inactive) in each case. Besides, the GI50 in the assay with SW-620, in the assay with HL-60, in the assay on COLO 205, with SN12C, with HCT-116 and in the assay on PC-3 was > 100 µM (inactive) throughout. Besides, the GI50 in the assay with SF-268 is 59.2 µM (inactive); with MDA-MB-231, > 100 µM (inactive); with LOX IMVI, > 100 µM (inactive); with T47D, > 100 µM (inactive); in the assay with U-251, > 100 µM (inactive); with ACHN, > 100 µM (inactive). The GI50 in the assay with HOP-92 and with RXF 393 was > 100 µM (inactive) each time.
For the compound `CCO[C@H]1C[C@@H](c2ccccc2)[C@]2(C)C[C@H](C(=O)OC)ON2O1`, the GI50 with DU-145, with OVCAR-4, with K562, in the assay with NCI-H23, in the assay with NCI-H226 and in the assay with MOLT-4 was > 100 µM (inactive) throughout. Moreover, the GI50 in the assay on SW-620, with HL-60, with COLO 205, with SN12C, in the assay on HCT-116 and with PC-3 was > 100 µM (inactive) each time. Further, the GI50 in the assay on SF-268, in the assay with MDA-MB-231, with LOX IMVI, in the assay with T47D, in the assay on U-251 and in the assay on ACHN was > 100 µM (inactive) in each case. Also, the GI50 with HOP-92 and with RXF 393 was > 100 µM (inactive) throughout.
Turning to `C/C(=N\Nc1nc2ccccc2s1)c1cc(C)ncn1`, the GI50 is 2.19 µM (inactive) in the assay on DU-145; 1.7 µM (inactive) in the assay on OVCAR-4; 0.129 µM (active) in the assay with K562; 0.741 µM (active) in the assay on NCI-H23; 0.427 µM (active) in the assay with NCI-H226; 0.104 µM (active) in the assay with MOLT-4. Besides, the GI50 is 0.352 µM (active) with SW-620; 0.0776 µM (active) with HL-60; 0.0543 µM (active) with COLO 205; 0.392 µM (active) with SN12C; 0.1 µM (active) with HCT-116; 0.612 µM (active) with PC-3. For the same compound, the GI50 in the assay on SF-268 was 0.318 µM (active); with MDA-MB-231 it was 0.286 µM (active); with LOX IMVI, 0.499 µM (active); in the assay on T47D, 0.206 µM (active); in the assay with U-251, 1 µM (active); in the assay with ACHN, 0.199 µM (active). Besides, the GI50 is 1.54 µM (inactive) with HOP-92 and 3.02 µM (inactive) with RXF 393.
